“And” between values parts separate entries of the source, which are not always exact repeats. Equal entries are not always repeated.
Tests used:
[1] = tested on: progressive multiple sclerosis; conditions: cited from earlier work
[2] = tested on: patients with progressive MS (pMS); test: Prospective observational 12-month study of pMS patients with newly introduced MD1003 (pMS-b cohort): T25FW, Po and falls at M0 and M6; format: in vivo, human; conditions: for mean change in Po / mean change in TW25F: M6 vs M0
Description: We perform a prospective observational study to evaluate a measure of a surrogate of ankle push-off moment power (Po) as a biomarker of evolution in pMS patients with stable treatment and pMS patients with newly introduced MD1003 (high-dose biotin). Po is measured during a 10m-walk with U-turn and back, using an IMU attached to each foot. The objective is to assess whether the dynamic measure of Po at 6-month interval reflects the response to treatment (assessed using the change in the timed 25-foot walk or the Expanded Disease Status Scale) and the change in fall risk within 6 months.
Second, the inventors aim at measuring how this variation in Po impact evolution of fall risk in this group of pMS patients. […] The T25FW, Po and risk of falls was assessed every 6 months using a simple validated protocol and the evolution of Po and the risk of falls were compared for each individual according to their response to treatment.
Patients—Thirty-three patients with progressive MS (pMS) and 20 gender and age-matched healthy subjects (HS) were enrolled in this longitudinal prospective study (table 1). pMS were recruited consecutively from the outpatient clinic of Percy Hospital (Clamart, France) between December 2017 and April 2018. The inclusion criteria for participation in the pMS cohorts required participants to be at least 18 years old, be diagnosed with primary progressive or secondary progressive multiple sclerosis according to the 2010 International Panel criteria, be capable of walking 20 m with U-turn, be free of any other conditions that affect gait. The exclusion criteria was pregnancy and high-dose biotin intake before M0. From the pMS cohort, the inventors isolated a subgroup, named pMS-b cohort, built with patients who were treated with high-dose biotin (MD1003 100 mg, three times a day) for at least one year after inclusion. For participating in the pMS-b cohort, additional inclusion criteria were those of the cohort Temporary Use Authorisation (TUAc) of MD1003—they had to have been free of any relapse for at least one year and sign the consent to enter the TUA cohort. The other patients were included in a group named pMS-nb. Exclusion criteria from this pMS-nb cohort were the presence of drug intake modification for the six-months prior to inclusions or during the twelve-month follow-up. HS participants were recruited from the hospital and research unit staff between December 2017 and April 2018. The inclusion criteria for participation in the HS cohort included: no report of falls in the past 5 years before inclusion, no disease that could affect their walk. Seventeen patients were included in the pMS-b cohort and 16 in the pMS-nb cohort. All participants gave their written consent to participate in the study. The study protocol was conducted according to the Helsinki principles and approved by Ethic Comity “Protection des Personnes Nord Ouest III” under the ID RCB: 2017-A01538-45.
Measures—Gait was measured using four 3-dimensional accelerometers (Mtw XSens®, 100 Hz sampling frequency) positioned on the head, lower back (L4-L5 vertebrae) and dorsal part of both feet. Participants performed two walks of 20 m with U-turn (10 m way in and 10 m way out). One trial per visit only was used in this study, as the second trial was done with specific conditions for the sake of a reproducibility test in a previous study. A limit at 7.62 m was drawn for the assessor to timeclock the T25FW during the first way-in. Disease severity was assessed using patient-reported outcomes (the Multiple Sclerosis Walking Scale-12—MSWS—and the Fatigue Impact Scale—FIS) together with clinical evaluation (Expanded Disease Severity Scale [10]-EDSS—and Computerized Speed Cognitive Test [11]—CSCT) and the 25-foot walking test administered according to a validated standardized protocol. […]

[3] = pMS-b (n = 17), T25FW at M6 vs M0

## O=C(O)CCCC[C@@H]1SC[C@@H]2NC(=O)N[C@@H]21 [MD1003, biotin]
[1]; cohort of the phase 3 clinical trial [14]
  response to treatment as defined by a 20% decrease in TW25F: 8.7%
[1]; recently demonstrated efficacy of MD1003
  patients in whom the T25FW time decreased by 20%: 10%
[2]; our cohort (pMS-b)
  response to treatment as defined by a 20% decrease in TW25F: 13%
[2]; pMS-b (n = 17), MD1003 100 mg three times a day, T25FW at M6 vs M0
  complete responder (≥20% decrease), number of patients: 3/17 and 3
[2]; [3]
  complete progressor (≥20% increase), number of patients: 5
  complete progressor (≥20% increase), percent of patients: (29%)
  non responder (−10-10% decrease), number of patients: 5
  non responder (−10-10% decrease), percent of patients: (29%)
  partial progressor (10-20% increase), number of patients: 2
  partial progressor (10-20% increase), percent of patients: (12%)
  partial responder (10-20% decrease), number of patients: 2
  partial responder (10-20% decrease), percent of patients: (12%)
[2]; pMS-b cohort
  participants who decreased their number of falls among the three with Po decreased by more than 20%: Two
  significant change of Po after beginning of MD1003: nearly half the cohort
[2]; pMS-b cohort, summary of results, M0 to M6
  responders (response to treatment by change in timed 25-foot walk or EDSS): 2/17
[2]; pMS-b cohort, M0 to M6
  participants who decreased their Po by more than 20%: Three
[2]; pMS-b complete progressors
  mean change in Po: −0.36
  mean change in TW25F: 1.39
[2]; pMS-b complete responders
  mean change in Po: 0.33
  mean change in TW25F: −0.26
[2]; pMS-b group
  number of falls in the following 6 months in the 4 patients with significant increase (higher than 20%) in Po: equal or lower number of falls
[2]; pMS-b group, 17 patients, M0 to M6
  patients showing an increase in Po of more than 20%: 4
[2]; pMS-b group, out of the 17 patients, M0 to M6
  patients who increased their Po: 8
[2]; pMS-b group, M0-M6 vs M6-M12
  patients who did not fall during the first 6-month period and began falling during the second 6-month period: 3
  patients who fell during the first 6-month period and stopped falling during the second 6-month period: 1
[2]; pMS-b non responders
  mean change in Po: −0.02
  mean change in TW25F: 0.00
[2]; pMS-b partial progressors
  mean change in Po: 0.05
  mean change in TW25F: 0.17
[2]; pMS-b partial responders
  mean change in Po: 0.14
  mean change in TW25F: −0.17
[2]; small sample of pMS patients
  effect on locomotion: improved the locomotion in a subset pMS patients
